Assays:
Settings in all cases: 48 h
NOMO1 [1] = test: cell viability relative to DMSO control; higher = less cytotoxic
Procedure, shortened: (§1)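 NOMO1 or SEM cells were plated at 500 cells/well and P12-Ichikawa cells at 1000 cells/well in 1536-well plates (5 μl), after each leukemia line had been adapted for at least four passages in each medium. Pin dosing delivered library compounds in DMSO at 11 threefold concentrations, 47 μM to 0.79 nM. CellTiter-Glo One luminescence was read after 48 h at 37°C. Viability is reported as a per-plate percentage of DMSO wells, with cell-free wells as background.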

P12-Ichikawa [2] = test: as above
Procedure, shortened: as §1

SEM cells [3] = test: as above
Procedure, shortened: as §1

NOMO1 [4] = test: AUC of viability dose-response curve (% viability x log10 dose units); higher = less sensitive
Procedure, shortened: (§2)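 Leukemia cells adapted to each medium were seeded in 1536-well plates (500 or 1000 cells/well) and given library compounds in DMSO for 48 h at 37°C. The 11 threefold doses spanned 47 μM to 0.79 nM, and CellTiter-Glo One luminescence was normalised per plate to DMSO and cell-free wells before four-parameter log-logistic fitting on log10 dose. Area under the curve was integrated with the trapezoidal rule, scaling curves above full viability and removing curves that failed quality control.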

P12-Ichikawa [5] = test: as above
Procedure, shortened: as §2

SEM cells [6] = test: as above
Procedure, shortened: as §2

CCCC1OC2C[C@H]3[C@@H]4CCC5=CC(=O)C=C[C@]5(C)[C@H]4C(O)C[C@]3(C)[C@]2(C(=O)CO)O1 (some centres not stated)
cell viability [%]
Settings	NOMO1 [1]	P12-Ichikawa [2]	SEM cells [3]
HPLM + 10% dialyzed FBS, 0.000781 µM	–	114	88.6
HPLM + 10% dialyzed FBS, 0.00234 µM	–	120	84.3
HPLM + 10% dialyzed FBS, 0.00702 µM	–	109	97.1
HPLM + 10% dialyzed FBS, 0.0211 µM	–	95.8	85.3
HPLM + 10% dialyzed FBS, 0.0632 µM	–	79	69
HPLM + 10% dialyzed FBS, 0.19 µM	–	68.7	67
HPLM + 10% dialyzed FBS, 0.569 µM	–	67.3	62.2
HPLM + 10% dialyzed FBS, 1.71 µM	–	64	51
HPLM + 10% dialyzed FBS, 5.12 µM	–	64.9	48
HPLM + 10% dialyzed FBS, 15.4 µM	–	60	46.2
HPLM + 10% dialyzed FBS, 46.1 µM	–	49	27.4
RPMI 5 mM glucose + 10% FBS, 0.000781 µM	106	116	95.2
RPMI 5 mM glucose + 10% FBS, 0.00234 µM	105	114	125
RPMI 5 mM glucose + 10% FBS, 0.00702 µM	107	99.1	95.7
RPMI 5 mM glucose + 10% FBS, 0.0211 µM	111	90	86.7
RPMI 5 mM glucose + 10% FBS, 0.0632 µM	107	70.6	81.4
RPMI 5 mM glucose + 10% FBS, 0.19 µM	104	57.8	66
RPMI 5 mM glucose + 10% FBS, 0.569 µM	106	57.6	46.3
RPMI 5 mM glucose + 10% FBS, 1.71 µM	103	50.1	59.9
RPMI 5 mM glucose + 10% FBS, 5.12 µM	100	51.2	48.6
RPMI 5 mM glucose + 10% FBS, 15.4 µM	97.5	51.3	46.2
RPMI 5 mM glucose + 10% FBS, 46.1 µM	46.7	39.7	18.2
RPMI 5 mM glucose + 10% dialyzed FBS, 0.000781 µM	99.5	116	87.4
RPMI 5 mM glucose + 10% dialyzed FBS, 0.00234 µM	119	108	105
RPMI 5 mM glucose + 10% dialyzed FBS, 0.00702 µM	106	90.4	100
RPMI 5 mM glucose + 10% dialyzed FBS, 0.0211 µM	114	76.7	77.9
RPMI 5 mM glucose + 10% dialyzed FBS, 0.0632 µM	110	60	68.8
RPMI 5 mM glucose + 10% dialyzed FBS, 0.19 µM	102	47.5	59.2
RPMI 5 mM glucose + 10% dialyzed FBS, 0.569 µM	105	44.1	53.4
RPMI 5 mM glucose + 10% dialyzed FBS, 1.71 µM	115	43	52.3
RPMI 5 mM glucose + 10% dialyzed FBS, 5.12 µM	97.1	42	50.5
RPMI 5 mM glucose + 10% dialyzed FBS, 15.4 µM	95.3	37.5	39.7
RPMI 5 mM glucose + 10% dialyzed FBS, 46.1 µM	63.7	28.4	19.3

AUC of viability dose-response curve
Settings	NOMO1 [4]	P12-Ichikawa [5]	SEM cells [6]
HPLM + 10% dialyzed FBS	446	324	317
RPMI 5 mM glucose + 10% FBS	460	290	304
RPMI 5 mM glucose + 10% dialyzed FBS	458	252	311

O=c1[nH]c(=O)n(C2CCCO2)cc1F (configuration not stated)
cell viability [%]
Settings	NOMO1 [1]	P12-Ichikawa [2]	SEM cells [3]
HPLM + 10% dialyzed FBS, 0.000781 µM	–	122	92.4
HPLM + 10% dialyzed FBS, 0.00234 µM	–	124	124
HPLM + 10% dialyzed FBS, 0.00702 µM	–	126	105
HPLM + 10% dialyzed FBS, 0.0211 µM	–	125	119
HPLM + 10% dialyzed FBS, 0.0632 µM	–	125	122
HPLM + 10% dialyzed FBS, 0.19 µM	–	124	127
HPLM + 10% dialyzed FBS, 0.569 µM	–	123	92.5
HPLM + 10% dialyzed FBS, 1.71 µM	–	123	111
HPLM + 10% dialyzed FBS, 5.12 µM	–	112	90.2
HPLM + 10% dialyzed FBS, 15.4 µM	–	110	104
HPLM + 10% dialyzed FBS, 46.1 µM	–	116	99.1
RPMI 5 mM glucose + 10% FBS, 0.000781 µM	10.4	–	123
RPMI 5 mM glucose + 10% FBS, 0.00234 µM	124	–	120
RPMI 5 mM glucose + 10% FBS, 0.00702 µM	108	–	109
RPMI 5 mM glucose + 10% FBS, 0.0211 µM	116	–	126
RPMI 5 mM glucose + 10% FBS, 0.0632 µM	105	–	115
RPMI 5 mM glucose + 10% FBS, 0.19 µM	131	–	110
RPMI 5 mM glucose + 10% FBS, 0.569 µM	106	–	127
RPMI 5 mM glucose + 10% FBS, 1.71 µM	110	–	114
RPMI 5 mM glucose + 10% FBS, 5.12 µM	116	–	123
RPMI 5 mM glucose + 10% FBS, 15.4 µM	111	–	122
RPMI 5 mM glucose + 10% FBS, 46.1 µM	109	–	104
RPMI 5 mM glucose + 10% dialyzed FBS, 0.000781 µM	–	88.6	70.2
RPMI 5 mM glucose + 10% dialyzed FBS, 0.00234 µM	–	126	110
RPMI 5 mM glucose + 10% dialyzed FBS, 0.00702 µM	–	120	109
RPMI 5 mM glucose + 10% dialyzed FBS, 0.0211 µM	–	128	117
RPMI 5 mM glucose + 10% dialyzed FBS, 0.0632 µM	–	130	99.7
RPMI 5 mM glucose + 10% dialyzed FBS, 0.19 µM	–	120	115
RPMI 5 mM glucose + 10% dialyzed FBS, 0.569 µM	–	122	108
RPMI 5 mM glucose + 10% dialyzed FBS, 1.71 µM	–	121	109
RPMI 5 mM glucose + 10% dialyzed FBS, 5.12 µM	–	119	102
RPMI 5 mM glucose + 10% dialyzed FBS, 15.4 µM	–	108	104
RPMI 5 mM glucose + 10% dialyzed FBS, 46.1 µM	–	115	97.8

AUC of viability dose-response curve
Settings	NOMO1 [4]	P12-Ichikawa [5]	SEM cells [6]
HPLM + 10% dialyzed FBS	468	466	448
RPMI 5 mM glucose + 10% FBS	455	467	467
RPMI 5 mM glucose + 10% dialyzed FBS	447	470	469
